This is an account of results in patent publication US7932262B2 (Novartis AG, priority 2006, dated 2011).

Like-named read-outs stand apart in the source and are kept apart here.

One assay concerns A2780 cells. As to the kind of experiment: Cell Proliferation Assay (Cell Titer Glo), A2780. It is filed as cell-based. The following applies: Homo sapiens, read-out: CPEC50 A2780. The protocol:
IV. Cell Proliferation Assay Protocol:
A2780, PC-3, or PC3MM cells were seeded at 1000 cells/well in 100 μL/well (10.000 cells/mL) growth media in 96-well plates. Cells were allowed to adhere to the bottom of plates for 3-5 hours in a 37° C. 5% CO2 incubator. Compounds were dissolved in DMSO and then transferred to the cell plates. The cells were incubated with the compounds for 3 days in a 37° C. 5% CO2 incubator. The growth medium containing the compounds was then removed from the cells and fresh medium was added, followed by 100 μL of Cell Titer Glo assay reagent (Promega). This mixture was shaken for 1 minute and then incubated without shaking for 10 minutes. Activity determinations for the compounds were made by detection on a Trilux Instrument.
On the technique in general: In ATP-based viability assays light output follows the ATP content of the culture.

For the next assay, the target named is T1, PDK1 kinase (Homo sapiens, UniProt O15530).
T1 sequence (O15530 1-556): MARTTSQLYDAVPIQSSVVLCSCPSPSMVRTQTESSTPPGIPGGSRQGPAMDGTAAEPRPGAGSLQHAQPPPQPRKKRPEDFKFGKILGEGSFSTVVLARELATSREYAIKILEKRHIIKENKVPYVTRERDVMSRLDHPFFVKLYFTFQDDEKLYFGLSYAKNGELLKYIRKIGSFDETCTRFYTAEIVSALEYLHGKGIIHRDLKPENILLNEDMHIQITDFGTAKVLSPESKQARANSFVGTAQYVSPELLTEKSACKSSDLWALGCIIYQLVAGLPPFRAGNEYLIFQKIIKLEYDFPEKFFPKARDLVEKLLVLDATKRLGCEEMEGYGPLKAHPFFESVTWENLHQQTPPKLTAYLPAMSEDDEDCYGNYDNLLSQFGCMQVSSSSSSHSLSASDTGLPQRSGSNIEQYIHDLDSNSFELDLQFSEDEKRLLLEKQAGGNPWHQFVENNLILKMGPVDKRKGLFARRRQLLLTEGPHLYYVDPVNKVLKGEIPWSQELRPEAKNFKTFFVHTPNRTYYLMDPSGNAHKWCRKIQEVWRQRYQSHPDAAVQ
As to the kind of experiment: PDK1 Kinase Alpha Screen Assay. In kind it is biochemical. The settings on record: read-out: PDK1 IC50. The method in brief:
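PDK1 phosphorylated 50 nM biotinylated PDK1-4 peptide with 10 uM ATP in Tris pH 7.5, 10 mM MgCl2, 2 mM DTT, 2.5% DMSO for 3-18 hours. After EDTA stop, phosphopeptide was detected by AlphaScreen using phospho-(Ser/Thr) PKA substrate antibody with protein A/streptavidin beads, read after overnight incubation.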

[1] abbreviates: 72 h, A2780 cells, 3 days incubation.
[2] abbreviates: Cell Proliferation Assay, A2780.
Setting [3] is: cell proliferation, A2780 cells.

Usually IC50 stands for the concentration that inhibits the measured activity by half.

Turning to `CC(C)N1CCC(Oc2cccc3cnc(Nc4cccc(S(=O)(=O)N5CCOCC5)c4)nc23)CC1` [Compound 6, [8-(1-Isopropyl-piper-idin-4-yloxy)-quina-zolin-2-yl]-[3-(morpholine-4-sul-fonyl)-phenyl]-amine], the EC50 in the assay on A2780 cells (setting [1]) was < 5 µM. In addition, the IC50 at PDK1 kinase was < 5 µM. Take `CN1CCN(S(=O)(=O)c2cccc(Nc3ncc4cccc(OC5CCNCC5)c4n3)c2)CC1` [Compound 7, [3-(4-Methyl-piper-azine-1-sulfonyl)-phenyl]-[8-(piperidin-4-yloxy)-quinazolin-2-yl]-amine]: in the assay with A2780 cells (setting [1]), the EC50 is < 5 µM. Moreover, at PDK1 kinase, the IC50 is < 5 µM. Turning to `CC(C)NS(=O)(=O)c1cccc(Nc2ncc3cccc(OC4CCNCC4)c3n2)c1` [Compound 8, N-Isopropyl-3-[8-(piperidin-4-yloxy)-quinazolin-2-yl-amino]-benzenesulfonamide], the EC50 in the assay with A2780 cells (setting [1]) was < 5 µM. The IC50 at PDK1 kinase was < 5 µM. On to `COCCNS(=O)(=O)c1cccc(Nc2ncc3cccc(OC4CCNCC4)c3n2)c1` [Compound 9, N-(2-Methoxy-ethyl)-3-[8-(piperidin-4-yloxy)-quinazolin-2-ylamino]-benzenesulfonamide], for which the EC50 in the assay with A2780 cells (setting [1]) is < 5 µM. Further, at PDK1 kinase, the half-maximal inhibitory concentration (IC50) is < 5 µM. Take `CN1CCN(S(=O)(=O)c2ccc(Nc3ncc4cccc(OC5CCNCC5)c4n3)cc2)CC1` [Compound 10, [4-(4-Methyl-piper-azine-1-sulfonyl)-phenyl]-[8-(piper-idin-4-yloxy)-quinazolin-2-yl]-amine]: the EC50 in the assay on A2780 cells (setting [1]) is < 5 µM. Further, the half-inhibitory concentration (IC50) at PDK1 kinase was < 5 µM.

Regarding `O=S(=O)(NCCN1CCCC1)c1cccc(Nc2ncc3cccc(OC4CCNCC4)c3n2)c1` [Compound 15, 3-[8-(Piperidin-4-yl-oxy)-quinazolin-2-ylamino]-N-(2-pyrrolidin-1-yl-ethyl)-benzenesulfonamide], the EC50 with A2780 cells (setting [1]) is 5 to 10 µM. The half-inhibitory concentration (IC50) on PDK1 kinase was < 5 µM. In the same order, the values of `O=S(=O)(NC1CC1)c1cccc(Nc2ncc3cccc(OC4CCNCC4)c3n2)c1` [Compound 16, N-Cyclopropyl-3-[8-(piperidin-4-yloxy)-quinazolin-2-ylamino]-benzenesulfonamide] are < 5 µM and < 5 µM.

Regarding `NS(=O)(=O)c1ccc(Nc2ncc3ccc(Br)c(OC4CCNCC4)c3n2)cc1` [Compound 17, 4-[7-Bromo-8-(piper-idin-4-yloxy)-quin-azolin-2-ylamino]-benzenesulfonamide], in the assay with A2780 cells (setting [1]), the EC50 is < 5 µM. The IC50 on PDK1 kinase is < 5 µM. With `NC(=O)c1ccc(-c2ccc3cnc(Nc4ccc(S(N)(=O)=O)cc4)nc3c2OC2CCNCC2)cc1` [Compound 19, 4-[8-(Piperidin-4-yl-oxy)-2-(4-sulfamoyl-phenylamino)-quinazolin-7-yl]-benzamide], the EC50 with A2780 cells (setting [1]) was in the range of 5 to 10 µM. Besides, at PDK1 kinase, the IC50 was < 5 µM.

With `NS(=O)(=O)c1ccc(Nc2ncc3ccc(-c4ccncc4)c(OC4CCNCC4)c3n2)cc1` [Compound 20, 4-[8-(Piperidin-4-yl-oxy)-7-pyridin-4-yl-quinazolin-2-ylamino]-benzenesulfonamide], the EC50 in the assay with A2780 cells (setting [1]) was < 5 µM. In addition, the IC50 at PDK1 kinase is < 5 µM. As for `Nc1ncc(-c2ccc3cnc(Nc4ccc(S(N)(=O)=O)cc4)nc3c2OC2CCNCC2)cn1` [Compound 22, 4-[7-(2-Amino-pyrimidin-5-yl)-8-(piperidin-4-yloxy)-quinazolin-2-ylamino]-benzenesulfonamide], the EC50 in the assay on A2780 cells (setting [1]) fell in the range of 5 to 10 µM. Besides, the IC50 on PDK1 kinase was < 5 µM. With `N#Cc1ccc2cnc(Nc3ccc(S(N)(=O)=O)cc3)nc2c1OC1CCNCC1` [Compound 29, 4-[7-Cyano-8-(piperidin-4-yloxy)-quinazolin-2-ylamino]-benzenesulfonamide], the EC50 in the assay with A2780 cells (setting [1]) was < 5 µM. Also, on PDK1 kinase, the IC50 is < 5 µM.

For the compound `NC(=O)c1ccc(Nc2ncc3cccc(OC4CCNCC4)c3n2)cc1` [Compound 30, 4-[8-(Piperidin-4-yloxy)-quinazolin-2-ylamino]-benzamide], the EC50 with A2780 cells (setting [1]) is < 5 µM. At PDK1 kinase, the IC50 is < 5 µM. Regarding `NS(=O)(=O)c1ccc(Nc2ncc3cccc(O[C@H]4CCNC4)c3n2)cc1` [Compound 32, 4-[8-((S)-Pyrrolidin-3-yloxy)-quinazolin-2-ylamino]-benzenesulfonamide], in the assay on A2780 cells (setting [1]), the EC50 was < 5 µM. Besides, the IC50 at PDK1 kinase was < 5 µM. Take `NS(=O)(=O)c1ccc(Nc2ncc3cccc(OC4CN5CCC4CC5)c3n2)cc1` (stereo not shown) [Compound 33, 4-[8-(1-Aza-bicyclo[2.2.2]oct-3-yloxy)-quinazolin-2-ylamino]-benzenesulfonamide]: the EC50 in the assay with A2780 cells (setting [1]) was < 5 µM. Also, the IC50 on PDK1 kinase was < 5 µM. In the case of `CC(C)Oc1cccc2cnc(NC3CCN(C)CC3)nc12` [Compound 557, 8-isopropoxy-N-(1-methylpiperidin-4-yl)quinazolin-2-amine], the EC50 in the assay on A2780 cells (setting [2]) was in the range of 5 to 10 µM. Same read-out and setting: to `CC(C)Oc1cccc2cnc(NCc3ccc(S(N)(=O)=O)cc3)nc12` [Compound 558, 4-((8-isopropoxyquinazolin-2-ylamino)methyl)benzenesulfonamide] belongs 5 to 10 µM. In the case of `COc1cc(-c2ccc3cnc(Nc4ccc(S(N)(=O)=O)cc4)nc3c2)ccn1` [Compound 560, 4-(7-(2-methoxypyridin-4-yl)quinazolin-2-ylamino)benzenesulfonamide], the EC50 with A2780 cells (setting [2]) lay in the range of 5 to 10 µM. On to `CNC(=O)c1cc(Oc2ccc3cnc(Nc4ccc(S(N)(=O)=O)cc4)nc3c2)ccn1` [Compound 563, N-methyl-4-(2-(4-sulfamoylphenylamino)quinazolin-7-yloxy)picolinamide], for which the EC50 in the assay on A2780 cells (setting [2]) was in the range of 5 to 10 µM. The same measure, in the same setting: to `CNC(=O)c1cccc2cnc(Nc3ccc(S(N)(=O)=O)cc3)nc12` [Compound 623, N-methyl-2-(4-sulfamoylphenylamino)quinazoline-8-carboxamide] belongs < 5 µM; to `NS(=O)(=O)c1ccc(Nc2ncc3cccc(C(=O)NC4CCOCC4)c3n2)cc1` [Compound 625, 2-(4-sulfamoylphenylamino)-N-(tetrahydro-2H-pyran-4-yl)quinazoline-8-carboxamide], < 5 µM; to `CC(=O)NCCNC(=O)c1cccc2cnc(Nc3ccc(S(N)(=O)=O)cc3)nc12` [Compound 626, N-(2-acetamidoethyl)-2-(4-sulfamoylphenylamino)quinazoline-8-carboxamide], 5 to 10 µM. The same measure, in the same setting: to `CS(=O)(=O)CCNC(=O)c1cccc2cnc(Nc3ccc(S(N)(=O)=O)cc3)nc12` [Compound 627, N-(2-(methylsulfonyl)ethyl)-2-(4-sulfamoylphenylamino)quinazoline-8-carboxamide] belongs 5 to 10 µM; to `NS(=O)(=O)c1ccc(Nc2ncc3cc(F)cc(-c4ccc(F)nc4)c3n2)cc1` [Compound 633, 4-(6-fluoro-8-(6-fluoropyridin-3-yl)quinazolin-2-ylamino)benzenesulfonamide], 5 to 10 µM. Consider `COc1cc(-c2ccc3cnc(Nc4ccc(S(N)(=O)=O)cc4)nc3c2)c(Cl)cn1` [Compound 696, 4-(7-(5-chloro-2-methoxypyridin-4-yl)quinazolin-2-ylamino)benzenesulfonamide], for which the EC50 in the assay with A2780 cells (setting [2]) was 5 to 10 µM.

As to `COc1cccc(COc2cccc3cnc(Nc4ccc(S(N)(=O)=O)cc4)nc23)c1` [Compound 719, 4-(8-(3-methoxybenzyloxy)quinazolin-2-ylamino)benzenesulfonamide], in the assay with A2780 cells (setting [3]), the EC50 was < 5 µM. Still for that read-out and setting: the figure for `NS(=O)(=O)c1ccc(Nc2ncc3cccc(OCc4ccc5nonc5c4)c3n2)cc1` [Compound 720, 4-(8-(benzo[c][1,2,5]oxadiazol-5-ylmethoxy)quinazolin-2-ylamino)benzenesulfonamide] is 5 to 10 µM. Same read-out and setting: to `c1cc(OC2CCCC2)c2nc(NC3CC3)ncc2c1` [Compound 728, 8-(cyclopentyloxy)-N-cyclopropylquinazolin-2-amine] belongs 5 to 10 µM; to `Fc1ccc(F)c(CNc2ncc3cccc(OC4CCCC4)c3n2)c1` [Compound 729, 8-(cyclopentyloxy)-N-(2,5-difluorobenzyl)quinazolin-2-amine], 5 to 10 µM; to `Oc1cccc2cnc(NCc3cc(F)ccc3F)nc12` [Compound 730, 2-(2,5-difluorobenzylamino)quinazolin-8-ol], < 5 µM.

On to `NS(=O)(=O)c1ccc(Nc2ncc3ccc(-c4ccc5c(c4)OCO5)cc3n2)cc1` [Compound 791, 4-(7-(benzo[d][1,3]dioxol-5-yl)quinazolin-2-ylamino)benzenesulfonamide], for which, in the assay on A2780 cells (setting [3]), the EC50 fell in the range of 5 to 10 µM.
